These are literature values, as cited in patent US6537525B1, “Medicated chewing-gum” (priority 1997, dated 2003).

For data set [1] the following is noted: antacid; versus magnesium trisilicate or magnesium carbonate.
In data set [2] the test system is esophageal lesions associated with heartburn. Conditions: versus placebo or ranitidine.

Turning to `[O]=[Mg]` [Magnesium oxide, magnesium oxide], the “potency relative to magnesium trisilicate or magnesium carbonate” value in data set [1] was 8 to 10 times. On to `NC(N)=Nc1nc(CSCCC(N)=NS(N)(=O)=O)cs1` [Famotidine], for which, in data set [2], the “effectiveness in the healing of esophageal lesions associated with heartburn” value is “significantly more effective than placebo or ranitidine”.
